Assay results taken from the NIST ThermoML archive (doi:10.1021/je1012857).
Numbers after ± are expanded uncertainties.

Experiment: xn = mol fraction of the nth substance listed
Details: 101 kPa, Liquid; for speed of sound: Sing-around technique in a fixed-path interferometer; for viscosity: Capillary tube (Ostwald / Ubbelohde) method

NCCN [ethane-1,2-diamine] + CCCCO
Details | mass density [kg/m3] | speed of sound [m/s] | viscosity [mPa·s]
293.15 K, x1 = 0.0528 | 815.585 ± 0.45 | 1279.7 ± 0.9 | –
293.15 K, x1 = 0.1135 | 822.116 ± 0.45 | 1302.1 ± 0.9 | –
293.15 K, x1 = 0.1488 | 825.769 ± 0.44 | 1315.9 ± 0.9 | –
293.15 K, x1 = 0.214 | 832.273 ± 0.44 | 1341.7 ± 1 | –
293.15 K, x1 = 0.2602 | 836.674 ± 0.44 | 1360.5 ± 1 | –
293.15 K, x1 = 0.3286 | 842.718 ± 0.43 | 1387.1 ± 1 | –
293.15 K, x1 = 0.3985 | 848.216 ± 0.43 | 1414.5 ± 1.1 | –
293.15 K, x1 = 0.5036 | 856.28 ± 0.43 | 1456.5 ± 1.1 | –
293.15 K, x1 = 0.5965 | 863.365 ± 0.43 | 1494.7 ± 1.2 | –
293.15 K, x1 = 0.7081 | 872.153 ± 0.43 | 1543.9 ± 1.2 | –
293.15 K, x1 = 0.7931 | 879.359 ± 0.44 | 1584.7 ± 1.3 | –
293.15 K, x1 = 0.8504 | 884.315 ± 0.44 | 1613.6 ± 1.3 | –
293.15 K, x1 = 0.8979 | 888.772 ± 0.44 | 1639.1 ± 1.3 | –
293.15 K, x1 = 0.936 | 892.567 ± 0.44 | 1660.5 ± 1.3 | –
298.15 K, x1 = 0.0528 | 811.698 ± 0.46 | 1262.9 ± 0.9 | 2.609 ± 0.016
298.15 K, x1 = 0.1135 | 818.144 ± 0.45 | 1285 ± 0.9 | 2.591 ± 0.016
298.15 K, x1 = 0.1488 | 821.746 ± 0.45 | 1298.6 ± 0.9 | 2.584 ± 0.016
298.15 K, x1 = 0.214 | 828.164 ± 0.44 | 1324.3 ± 1 | 2.53 ± 0.016
298.15 K, x1 = 0.2602 | 832.509 ± 0.44 | 1342.9 ± 1 | 2.484 ± 0.016
298.15 K, x1 = 0.3283 | – | – | 2.412 ± 0.016
298.15 K, x1 = 0.3286 | 838.245 ± 0.44 | 1368.8 ± 1 | –
298.15 K, x1 = 0.3985 | 843.943 ± 0.44 | 1396.3 ± 1.1 | 2.327 ± 0.016
298.15 K, x1 = 0.5036 | 851.943 ± 0.44 | 1437.7 ± 1.1 | 2.184 ± 0.015
298.15 K, x1 = 0.5965 | 858.974 ± 0.44 | 1475.5 ± 1.1 | 2.03 ± 0.015
298.15 K, x1 = 0.7081 | 867.696 ± 0.44 | 1523.9 ± 1.2 | 1.842 ± 0.014
298.15 K, x1 = 0.7931 | 874.839 ± 0.44 | 1564.1 ± 1.3 | 1.697 ± 0.013
298.15 K, x1 = 0.8504 | 879.75 ± 0.45 | 1592.5 ± 1.3 | 1.604 ± 0.013
298.15 K, x1 = 0.8979 | 884.168 ± 0.45 | 1617.5 ± 1.3 | 1.538 ± 0.013
298.15 K, x1 = 0.936 | 887.932 ± 0.45 | 1638.7 ± 1.3 | 1.481 ± 0.012
303.15 K, x1 = 0.0528 | 807.785 ± 0.46 | 1245.9 ± 0.9 | 2.298 ± 0.015
303.15 K, x1 = 0.1135 | 814.153 ± 0.46 | 1267.9 ± 0.9 | 2.3 ± 0.015
303.15 K, x1 = 0.1488 | 817.703 ± 0.45 | 1281.4 ± 0.9 | 2.292 ± 0.015
303.15 K, x1 = 0.214 | 824.038 ± 0.45 | 1306.8 ± 1 | 2.245 ± 0.015
303.15 K, x1 = 0.2602 | 828.329 ± 0.45 | 1325.3 ± 1 | 2.213 ± 0.015
303.15 K, x1 = 0.3283 | – | – | 2.147 ± 0.015
303.15 K, x1 = 0.3286 | 833.896 ± 0.45 | 1350.9 ± 1 | –
303.15 K, x1 = 0.3985 | 839.656 ± 0.44 | 1378.1 ± 1.1 | 2.071 ± 0.014
303.15 K, x1 = 0.5036 | 847.599 ± 0.44 | 1419.1 ± 1.1 | 1.942 ± 0.014
303.15 K, x1 = 0.5965 | 854.57 ± 0.45 | 1456.3 ± 1.1 | 1.813 ± 0.013
303.15 K, x1 = 0.7081 | 863.224 ± 0.45 | 1504 ± 1.2 | 1.648 ± 0.013
303.15 K, x1 = 0.7931 | 870.306 ± 0.45 | 1543.5 ± 1.2 | 1.531 ± 0.012
303.15 K, x1 = 0.8504 | 875.173 ± 0.45 | 1571.4 ± 1.3 | 1.448 ± 0.012
303.15 K, x1 = 0.8979 | 879.552 ± 0.45 | 1596.1 ± 1.3 | 1.381 ± 0.012
303.15 K, x1 = 0.936 | 883.288 ± 0.45 | 1616.8 ± 1.3 | 1.334 ± 0.011
308.15 K, x1 = 0.0528 | 803.849 ± 0.47 | 1228.5 ± 0.9 | 2.001 ± 0.013
308.15 K, x1 = 0.1135 | 810.137 ± 0.46 | 1250.7 ± 0.9 | 2.009 ± 0.013
308.15 K, x1 = 0.1488 | 813.64 ± 0.46 | 1264.3 ± 0.9 | 1.995 ± 0.013
308.15 K, x1 = 0.214 | 819.892 ± 0.46 | 1289.5 ± 1 | 1.954 ± 0.013
308.15 K, x1 = 0.2602 | 824.133 ± 0.45 | 1307.8 ± 1 | 1.923 ± 0.013
308.15 K, x1 = 0.3283 | – | – | 1.866 ± 0.013
308.15 K, x1 = 0.3286 | 829.828 ± 0.45 | 1333.6 ± 1 | –
308.15 K, x1 = 0.3985 | 835.352 ± 0.45 | 1360 ± 1 | 1.798 ± 0.013
308.15 K, x1 = 0.5036 | 843.235 ± 0.45 | 1400.4 ± 1.1 | 1.697 ± 0.013
308.15 K, x1 = 0.5965 | 850.157 ± 0.45 | 1437.1 ± 1.1 | 1.601 ± 0.012
308.15 K, x1 = 0.7081 | 858.739 ± 0.45 | 1484.2 ± 1.2 | 1.471 ± 0.012
308.15 K, x1 = 0.7931 | 865.762 ± 0.46 | 1523 ± 1.2 | 1.377 ± 0.011
308.15 K, x1 = 0.8504 | 870.584 ± 0.46 | 1550.5 ± 1.3 | 1.314 ± 0.011
308.15 K, x1 = 0.8979 | 874.924 ± 0.46 | 1574.8 ± 1.3 | 1.25 ± 0.011
308.15 K, x1 = 0.936 | 878.628 ± 0.46 | 1595.3 ± 1.3 | 1.198 ± 0.011
313.15 K, x1 = 0.0528 | 799.876 ± 0.47 | 1210.7 ± 0.9 | –
313.15 K, x1 = 0.1135 | 806.088 ± 0.47 | 1233.6 ± 0.9 | –
313.15 K, x1 = 0.1488 | 809.548 ± 0.47 | 1247.2 ± 0.9 | –
313.15 K, x1 = 0.214 | 815.723 ± 0.46 | 1272.3 ± 1 | –
313.15 K, x1 = 0.2602 | 819.91 ± 0.46 | 1290.4 ± 1 | –
313.15 K, x1 = 0.3286 | 825.879 ± 0.46 | 1315.8 ± 1 | –
313.15 K, x1 = 0.3985 | 831.025 ± 0.46 | 1341.9 ± 1 | –
313.15 K, x1 = 0.5036 | 838.849 ± 0.46 | 1381.7 ± 1.1 | –
313.15 K, x1 = 0.5965 | 845.718 ± 0.46 | 1418.1 ± 1.1 | –
313.15 K, x1 = 0.7081 | 854.232 ± 0.46 | 1464.4 ± 1.2 | –
313.15 K, x1 = 0.7931 | 861.194 ± 0.46 | 1502.7 ± 1.2 | –
313.15 K, x1 = 0.8504 | 865.971 ± 0.46 | 1529.7 ± 1.3 | –
313.15 K, x1 = 0.8979 | 870.277 ± 0.46 | 1553.1 ± 1.3 | –
313.15 K, x1 = 0.936 | 873.95 ± 0.47 | 1573.7 ± 1.3 | –
